# Values of other authors, collected in US9446032B2, “Methods for treating cardiovascular disorders” (WOCKHARDT LIMITED, priority 2011, dated 2016).
# Key:
# [1] = incomplete owing to extensive first pass metabolism
SMILES,solubility in ethanol (ethanol),solubility in water (water),bioavailability [1],solubility (BCS)
CCOC(=O)C1=C(COCCN)NC(C)=C(C(=O)OC)C1c1ccccc1Cl (stereo not shown) [Amlodipine besylate],sparingly soluble,slightly soluble,,
COCCc1ccc(OCC(O)CNC(C)C)cc1 (stereo not shown) [Metoprolol],,,about 50%,highly soluble
